Measurements from US11192852B2, “Pyrazolyl and pyrimidinyl tricyclic enones as antioxidant inflammation modulators” (REATA PHARMACEUTICALS, INC., priority 2010, dated 2021).

Tests used:
[1] = tested on: IFNγ-induced NO production in RAW264.7 mouse macrophages; assay: Suppression of IFNγ-induced nitric oxide production (Griess reagent); assay type: cell-based; settings: 2 h pre-treatment (0-200 nM), then IFNγ 24 h, normalized to cell viability
Source text: Nitric Oxide Production and Cell Viability.

[2] = tested on: Nrf2 transcription factor (human NQO1-ARE reporter) in HuH7 cells; assay: NQO1-ARE Luciferase Reporter Assay; assay type: cell-based; settings: Huh-7, 62.5 nM, 18 h, fold over DMSO vehicle, Firefly normalized to Renilla
Source text: NQO1-ARE Luciferase Reporter Assay.
This assay allows for quantitative assessment of the endogenous activity of the Nrf2 transcription factor in cultured mammalian cells. Expression of Firefly luciferase from NQO1-ARE luciferase reporter plasmid is controlled by binding of Nrf2 to a specific enhancer sequence corresponding to the antioxidant response element (ARE) that was identified in the promoter region of the human NADPH:quinone oxidoreductase 1 (NQO1) gene (Xie et al., 1995). The plasmid was constructed by inserting a sequence:
5′-[…]-3′ (SEQ ID NO:1) encompassing the human NQO1-ARE into the pLuc-MCS vector using HindIII/XhoI cloning sites (GenScript Corp., Piscataway, N.J.). The assay is performed in HuH7 cells maintained in DMEM (Invitrogen) supplemented with 10% FBS and 100 U/ml (each) of penicillin and streptomycin. For the assay, cells are plated in 96-well plates at 17,000 cells per well. Twenty four hours later, the cells are co-transfected with 50 ng each of NQO1-ARE reporter plasmid and pRL-TK plasmid using Lipofectamine 2000 transfection reagent (Invitrogen). pRL-TK plasmid constitutively expresses Renilla luciferase and is used as an internal control for normalization of transfection levels. Thirty hours after transfection, the cells are treated with compounds (at concentrations ranging from 0 to 1 μM) for eighteen hours. Firefly and Renilla luciferase activity is assayed by Dual-Glo Luciferase Assay (Promega Corp., Madison, Wis.), the luminescence signal is measured on an L-Max II luminometer (Molecular Devices). Firefly luciferase activity is normalized to the Renilla activity, and fold induction over a vehicle control (DMSO) of normalized Firefly activity is calculated. The fold induction at 62.5 nM concentration is used for comparing relative potencies of compounds to induce Nrf2 transcriptional activity. See Xie T, Belinsky M, Xu Y, Jaiswal A K. ARE- and TRE-mediated regulation of gene expression. Response to xenobiotics and antioxidants. J Biol Chem. (1995) 270(12):6894-6900, which is incorporated herein by reference.

[3] = Mus musculus, RAW264.7, RAW264.7 cells

Row | Structure (SMILES) | IC50 [1, 3] [nM] | fold induction at 0.0625 µM [2] | IC50 ([1]; RAW264.7 cells) [nM]
1 | Cc1ncc2c(n1)[C@@]1(C)C=C(C#N)C(=O)[C@@H](C)[C@@H]1CC2 [TX63554] | 42 | 1.9 | 
2 | Cn1nc2c(c1Cl)CC[C@H]1C(C)(C)C(=O)C(C#N)=C[C@]21C [TX63604] | 49 | 3.4 | 
3 | Cc1ncc2c(n1)[C@@]1(C)C=C(C#N)C(=O)C(C)(C)[C@@H]1CC2 [TX63468] | 64 | 2 | 
4 | Cn1nc2c(c1-c1cccnc1)CC[C@H]1C(C)(C)C(=O)C(C#N)=C[C@]21C [TX63503] | 17 | 5.5 | 
5 | CC1(C)C(=O)C(C#N)=C[C@]2(C)c3nc(-c4ccccc4)ncc3CC[C@@H]12 [TX63552] | 24 | 1.9 | 
6 | CC[C@@H]1C(=O)C(C#N)=C[C@]2(C)c3nn(C)c(-c4ccccc4)c3CC[C@@H]12 [TX63599] | 14 | 3.2 | 
7 | COc1nc(-c2cccnc2)nc2c1CC[C@H]1[C@H](C)C(=O)C(C#N)=C[C@]21C [TX63724] | 3.1 | 4.9 | 
8 | CC1(C)C(=O)C(C#N)=C[C@]2(C)c3c(c(-c4ccccc4)nn3-c3ccccc3)CC[C@@H]12 [TX63605] | 37 | 2.8 | 
9 | Cn1nc2c(c1-c1ccccc1)CC[C@H]1C(C)(C)C(=O)C(C#N)=C[C@]21C [TX63465] | 18.3 | 4.8 | 
10 | Cn1nc2c(c1-c1ccncc1)CC[C@H]1C(C)(C)C(=O)C(C#N)=C[C@]21C [TX63505] | 16 | 6.8 | 
11 | C[C@@H]1C(=O)C(C#N)=C[C@]2(C)c3nc(-c4ccccc4)ncc3CC[C@@H]12 [TX63569] | 9.8 | 2 | 
12 | Cn1nc2c(c1-c1ccccc1)CC[C@H]1[C@H](Cc3ccccc3)C(=O)C(C#N)=C[C@]21C [TX63607] | > 200 | 1 | 
13 | C[C@@H]1C(=O)C(C#N)=C[C@]2(C)c3nn(C)c(-c4ccccc4)c3CC[C@@H]12 (racemic) [TX63541] | 6 | 4.4 | 
14 | Cn1cc2c(n1)[C@@]1(C)C=C(C#N)C(=O)C(C)(C)[C@@H]1CC2 [TX63341] |  | 1.7 | 70
15 | CN1C(=O)C(C#N)=C[C@]2(C)c3nn(C)c(-c4ccccc4)c3CC[C@@H]12 [TX63568] | > 200 | 1.3 | 
16 | CC(C)(C)c1ncc2c(n1)[C@@]1(C)C=C(C#N)C(=O)C(C)(C)[C@@H]1CC2 [TX63561] | 44 | 2.4 | 
17 | COc1cccc(-c2c3c(nn2C)[C@@]2(C)C=C(C#N)C(=O)C(C)(C)[C@@H]2CC3)c1 [TX63513] | 25 | 2.9 | 
18 | Cn1nc2c(c1Cc1ccccc1)CC[C@H]1C(C)(C)C(=O)C(C#N)=C[C@]21C [TX63550] | 54 | 1.8 | 
19 | CC[C@@H]1C(=O)C(C#N)=C[C@]2(C)c3nc(-c4ccccc4)ncc3CC[C@@H]12 [TX63598] | 12 | 1.9 | 
20 | Cn1nc2c(c1-c1cccc(F)c1)CC[C@H]1C(C)(C)C(=O)C(C#N)=C[C@]21C [TX63506] | 25 | 3.2 | 
21 | Cc1nc2c(c(=O)n1C)CC[C@H]1C(C)(C)C(=O)C(C#N)=C[C@]21C [TX63584] | > 200 | 3.1 | 
